# Assay results published in patent US20240350650A1, “LINKER AND CONJUGATE THEREFOR” (BEIJING HOPE PHARMACEUTICAL CO.LTD., priority 2021, published 2024).
# How the values were obtained:
# Experiment in all cases: Inhibition of tumor cell proliferation (CTG, 6 days)
# Assay type in all cases: cell-based, human
# NCI-H1650 cells = conditions: FIG. 7
# Protocol: (§1) All the cells were those with high expression of Trop2 antigens. Trodelvy was the tradename of sacituzumab govitecan injector. Sacituzumab was an outsourced anti-Trop2 antibody. All cell lines were cultured in the complete medium at 37° C. with 5% CO2. Cells in the logarithmic growth phase were harvested and then counted using a […], and the cell viability was tested by the trypan blue rejection method to ensure that the cell viability was above 90%. […] The cells in the 96-well plate were cultured at 37° C. with 5% CO2. […] The cells from the dosed 96-well plate were cultured at 37° C. with 5% CO2 for another 6 days, followed by CTG analysis (CTG, a CellTiter-Glo kit, was a homogeneous cell viability assay for quantifying ATP to determine the viability of cultured cells). The CTG reagent was thawed, and the cell plate was equilibrated to room temperature for 30 min. 100 μL of CTG solution was added per well. The cells were shaken on an orbital shaker for 5 min for lysis. The cell plate was treated at room temperature for 20 min to stabilize the cold light signal. The cold light values were read to collect data. […] [formula]
# NCI-H596 cells = conditions: FIG. 8
# Protocol: as §1
# MDA-MB-468 cells = conditions: FIG. 5
# Protocol: as §1
# SNU216 cells = conditions: FIG. 6
# Protocol: as §1
substance,measurement,setting,value
Trodelvy,efficacy (in words),NCI-H1650 cells,superior to Sacituzumab
same,efficacy (in words),NCI-H596 cells,certain efficacy
same,efficacy (in words),MDA-MB-468 cells,superior to Sacituzumab
same,efficacy (in words),SNU216 cells,superior to Sacituzumab
